Measured values as given in US11925643B2, “Toll-like receptor 4 (TLR4) inhibitors and use thereof” (MOR RESEARCH APPLICATIONS LTD., priority 2018, dated 2024).
Entries after “also recorded” stand apart in the source; their conditions may differ. Residues, ends and D or L forms follow the SMILES beside them.

Assays:
C57BL mice [1] = experiment: Serum markers CK, LDH, troponin and GOT after LAD ligation; assay type: in vivo; conditions: 0.3 mg/kg IV one hour after ligation
TNF-α mRNA = TNF-α mRNA in mouse myocardium by RT-qPCR after ischemia; assay type: in vivo, mice; conditions: 0.3 mg/kg 1 hour after MI induction
Experimental: (§1) Real-time RT-PCR experiments were performed in duplicates on an ABI 7900 instrument (Applied Biosystems™) using Taqman™ Master Mix (Applied Biosystems™). The average threshold cycles (Ct) of the duplicates were used to calculate the relative expression levels of the following genes: TLR4 (Applied Biosystems™ assay primer ID: Mm00569848_m1 Tlr4), TLR2 (assay primer ID: Mm01769726_m1 Tlr2), TNF-α (assay primer ID: Mm00443260_g1 Tnf) and IL-1β (assay primer ID: Mm00434228_m1 II1b) in vitro and in vivo following hypoxia or ischemia, respectively. The reference gene was TBP and the primer used was derived from mouse TATA-box binding protein (Applied Biosystems™ assay primer ID: Mm00446973_m1 Tbp). Amounts of TLR2, TLR4, TNF-α and IL-1β mRNAs in each sample were calculated relative to TBP mRNA, based on the corresponding Cts, as Relative Quantity (RQ) values, and normalized taking as 1 a randomly selected sample of the control group (TBP mRNA). […]
Real time reverse transcriptase PCR (RT-qPCR) was conducted to identify the effect of a disclosed decoy peptide on TLR-mediated induction of the inflammatory cytokine TNF-α. The effect of an exemplary decoy peptide PM6 (0.3 mg/kg; administered 1 hour after MI induction) on TNF-α mRNA expression in mice myocardium was assessed 24 h and 7 days after ischemia induction.

C57BL mice [2] = experiment: Serum markers CK, LDH, troponin and GOT after LAD ligation; assay type: in vivo
Experimental: (§2) Male wild type mice (C57BL) were purchased from Harlan™ (Jerusalem, Israel). Mice were grown in a temperature-controlled atmosphere, 12/12 hours light/dark cycle and given standard food and tap water. The experiments were performed on 2-3-month-old male mice. All experiments were carried out in accordance with the guidelines of the Animal Care and Use Committee of Tel Aviv University with the Guide for the Care and Use of Laboratory Animals published by the US National Institutes of Health.
(§3) Mice were anesthetized (with a mixture of 100 mg/kg ketamine and 10 mg/kg xylazine), intubated and ventilated with air until spontaneous breathing commenced. The left anterior descending artery (LAD) was ligated with one single stitch, forming an ischemia that can be observed almost immediately. By closing the LAD, no further blood flow is permitted in that area, while the surrounding myocardial tissue is almost not affected. This surgical procedure imitates the pathobiological and pathophysiological aspects occurring in infarction-related myocardial ischemia.
Blood was drawn out from the mice and immediately centrifuged at […] for 10 minutes to isolate the serum, which was obtained from the top portion of the test tube. The serum was mixed with double distilled water (DDW) in a ratio of 1:10 and was ready for assaying. Various markers were observed (CK, LDH & troponin) to determine cardiac damage in the serum.
A dose response experiment was conducted using the experiment design of the pilot experiment. PM6 was given to mice in three doses: 0.05, 0.30 and 1.00 mg/kg. Blood levels of four serum markers were assessed. The levels of three markers CK, LDH and troponin were correlated with MI severity. Troponin is a complex of three regulatory proteins that is integral to muscle contraction in skeletal muscle and cardiac muscle, and serves as a highly specific marker for myocardial infarction or heart muscle cell death. The level of the fourth marker GOT was used as an indicator for liver functions.

C57BL mice [3] = experiment: Heart infarct size after LAD ligation (MI mice model); assay type: in vivo
Experimental: as §2, §3
Hearts of mice from tested groups were isolated, and pictures were taken to determine the extent of infarct relative to total area of the left ventricle to thereby determine the extent of cardio-protection by an exemplary decoy peptide. The viable heart sections were put in a 1% solution of 2,3,5-triphenyl tetrazolium chloride (TTC) in phosphate buffer for 10 min at 37° C. TTC stained the viable tissue in red while necrotic tissue remained discolored. Sections were fixed overnight in 4% formaldehyde to enhance the contrast between stained and unstained tissue. The sections were then placed between two cover slips and digitally photographed using a Nikon Coolpix 5000 camera, at a resolution of 1400×960 pixels, and quantified by using ImageJ software. The area of ischemia/infarction (TTC-negative) was presented as a percentage of the entire area of the section.
Myocardial infarction (MI) in animals may be mimicked by a procedure called left anterior descending artery (LAD) ligation, described in Materials and Methods above. A pilot dose response experiment was first conducted. Decoy peptide represented by compound PM6 (0.5, 1.0 and 5.0 mg/kg) or aqueous solution of 40% polyethylene glycol (PEG 600) were administered intravenously (IV) to C57BL mice, 1 hour before LAD ligation. All mice were kept under standard animal facility conditions for 24 hours. The heart infarct size was measured in all three groups.

IL-1β mRNA = IL-1β mRNA level by RT-qPCR in hypoxic cardiomyocytes; assay type: cell-based; conditions: hypoxic conditions
Experimental: as §1
Decoy peptides represented by compounds PM1-PM10 were tested in vitro for their ability to decrease the level of CK and LDH released by stressed cardiomyocytes following exposure to LPS or hypoxic stimulation, and further evaluated for their ability to affect the level of IL-1β and TLR4 mRNA, and expression of IκB and TLR4 proteins, according to the protocols described in Materials and Methods and in Example 5 herein above.

TLR2 mRNA = TLR2 mRNA level by RT-qPCR in hypoxic cardiomyocytes (negative control); assay type: cell-based; conditions: hypoxic conditions
Experimental: Real-time RT-PCR experiments were performed in duplicates on an ABI 7900 instrument (Applied Biosystems™) using Taqman™ Master Mix (Applied Biosystems™). The average threshold cycles (Ct) of the duplicates were used to calculate the relative expression levels of the following genes: TLR4 (Applied Biosystems™ assay primer ID: Mm00569848_m1 Tlr4), TLR2 (assay primer ID: Mm01769726_m1 Tlr2), TNF-α (assay primer ID: Mm00443260_g1 Tnf) and IL-1β (assay primer ID: Mm00434228_m1 II1b) in vitro and in vivo following hypoxia or ischemia, respectively. The reference gene was TBP and the primer used was derived from mouse TATA-box binding protein (Applied Biosystems™ assay primer ID: Mm00446973_m1 Tbp). Amounts of TLR2, TLR4, TNF-α and IL-1β mRNAs in each sample were calculated relative to TBP mRNA, based on the corresponding Cts, as Relative Quantity (RQ) values, and normalized taking as 1 a randomly selected sample of the control group (TBP mRNA). Calculation were performed using the Applied Biosystems Analysis™ software (StepOnePlus V2.2.2). All mRNA scores are presented in arbitrary units.
Next, peptidomimetics of SEQ ID NOs:1 and 2 were tested for their ability to affect the expression of TLR4. The level of TLR4 mRNA was measured by real-time reverse transcriptase polymerase chain reaction (RT-qPCR) method as described in Materials and Methods. […]

[4] = 0.3 mg/kg IV 1 hour before LAD ligation

Row | SMILES | blood level of CK (C57BL mice [1]; 1 week) | blood level of LDH (C57BL mice [1]; 1 week) | level of GOT (C57BL mice [1]; 24 h and 7 days) | blood level of CK (C57BL mice [1]; 24 hours) | blood level of LDH (C57BL mice [1]; 24 hours) | TNF-α mRNA level in myocardium (TNF-α mRNA; 24 h) | TNF-α mRNA level in myocardium (TNF-α mRNA; 7 days) | serum CK level (C57BL mice [2]; [4]) | serum LDH level (C57BL mice [2]; [4]) | serum troponin level (C57BL mice [2]; [4]) | GOT level (liver function) (C57BL mice [2]; 0.05, 0.30 and 1.00 mg/kg IV 1 hour before LAD ligation) | heart infarct size (C57BL mice [3]; 0.05 mg/kg IV 1 hour before LAD ligation) | infarct size (C57BL mice [3]; 0.3 mg/kg IV 1 hour after ligation, 7 days) | heart infarct size (C57BL mice [3]; 0.30 mg/kg IV 1 hour before LAD ligation) | heart infarct size (C57BL mice [3]; 1.00 mg/kg IV 1 hour before LAD ligation) | infarct size (C57BL mice [3]; pilot, 0.5 mg/kg IV 1 hour before LAD ligation, 24 hours) | inhibition of IL-1β mRNA production (IL-1β mRNA) | TLR2 mRNA expression level (TLR2 mRNA)
1 | CCCCCCCCNc1nc(=O)n(Cc2ccccc2)cc1C [PM6, 1-benzyl-5-methyl-4-(octylamino)pyrimidin-2(1H)-one] | very impressive down regulation | very impressive down regulation | did not changed dramatically | very impressive down regulation | very impressive down regulation | significant reduction | significant reduction | significantly reduced; also recorded: significant reduction | significantly reduced; also recorded: significant reduction | significantly reduced; also recorded: significant reduction | did not affect | significantly reduced | significantly reduced | significantly reduced; also recorded: significantly effective | significantly reduced | significant effect | ~12 fold | –
2 | CC[C@H](C)[C@H](NC(C)=O)C(=O)N[C@H](C(=O)N[C@@H](Cc1ccccc1)C(=O)N[C@@H](C)C(N)=O)C(C)C [SEQ ID NO:1, (2S,3S)-2-acetamido-N-((S)-1-(((S)-1-(((S)-1-amino-1-oxopropan-2-yl)amino)-1-oxo-3-phenylpropan-2-yl)amino)-3-methyl-1-oxobutan-2-yl)-3-methylpentanamide] (Ac-IVFA-NH2) | – | – | – | – | – | – | – | – | – | – | – | – | – | – | – | – | – | relatively unaffected
